For this series, the system named is CCRIS mutagenicity, Ames/micronucleus/aberration tests. The series can be described thus: CCRIS mutagenicity studies.
Where [1] appears, read: Test System: AMES SALMONELLA TYPHIMURIUM, Strain/Indicator: TA98, Metabolic Activation: NONE, Method: PREINCUBATION
[2] abbreviates: Test System: AMES SALMONELLA TYPHIMURIUM, Strain/Indicator: TA100, Metabolic Activation: NONE, Method: PREINCUBATION
Setting [3] is: Test System: AMES SALMONELLA TYPHIMURIUM, Strain/Indicator: TA100, Metabolic Activation: NONE, Method: STANDARD PLATE.
The mark [4] stands for this setting: Test System: AMES SALMONELLA TYPHIMURIUM, Strain/Indicator: TA1537, Metabolic Activation: NONE, Method: STANDARD PLATE.
[5] abbreviates: Test System: AMES SALMONELLA TYPHIMURIUM, Strain/Indicator: TA98, Metabolic Activation: NONE, Method: STANDARD PLATE.

Calls of active or inactive are those of the source. No rule for the calls is given here.

For the compound `O=C1c2c(O)cccc2Cc2cccc(O)c21`, the mutagenic call reads like this: (Test System: AMES SALMONELLA TYPHIMURIUM, Strain/Indicator: TA97, Metabolic Activation: HAMSTER, LIVER, S-9, AROCLOR 1254 (10%), Method: PREINCUBATION) “inactive; negative”; (Test System: AMES SALMONELLA TYPHIMURIUM, Strain/Indicator: TA97, Metabolic Activation: HAMSTER, LIVER, S-9, AROCLOR 1254 (30%), Method: PREINCUBATION) “inactive; negative”; (Test System: AMES SALMONELLA TYPHIMURIUM, Strain/Indicator: TA97, Metabolic Activation: NONE, Method: PREINCUBATION) “inactive; negative”; (Test System: AMES SALMONELLA TYPHIMURIUM, Strain/Indicator: TA97, Metabolic Activation: RAT, LIVER, S-9, AROCLOR 1254 (10%), Method: PREINCUBATION) “inactive; negative”; (Test System: AMES SALMONELLA TYPHIMURIUM, Strain/Indicator: TA97, Metabolic Activation: RAT, LIVER, S-9, AROCLOR 1254 (30%), Method: PREINCUBATION) “inactive; negative”; (Test System: AMES SALMONELLA TYPHIMURIUM, Strain/Indicator: TA98, Metabolic Activation: HAMSTER, LIVER, S-9, AROCLOR 1254 (10%), Method: PREINCUBATION) “inactive; negative”. The mutagenic call (Test System: AMES SALMONELLA TYPHIMURIUM, Strain/Indicator: TA98, Metabolic Activation: HAMSTER, LIVER, S-9, AROCLOR 1254 (30%), Method: PREINCUBATION) was “inactive; negative”; the mutagenic call under setting [1] was “inactive; negative”; the mutagenic call (Test System: AMES SALMONELLA TYPHIMURIUM, Strain/Indicator: TA98, Metabolic Activation: RAT, LIVER, S-9, AROCLOR 1254 (10%), Method: PREINCUBATION) was “inactive; negative”; the mutagenic call (Test System: AMES SALMONELLA TYPHIMURIUM, Strain/Indicator: TA98, Metabolic Activation: RAT, LIVER, S-9, AROCLOR 1254 (30%), Method: PREINCUBATION) was “inactive; negative”; the mutagenic call (Test System: AMES SALMONELLA TYPHIMURIUM, Strain/Indicator: TA100, Metabolic Activation: FISH, LIVER, S-9, 3-METHYLCHOLANTHRENE, Method: STANDARD PLATE) was “inactive; negative”; the mutagenic call (Test System: AMES SALMONELLA TYPHIMURIUM, Strain/Indicator: TA100, Metabolic Activation: HAMSTER, LIVER, S-9, AROCLOR 1254 (10%), Method: PREINCUBATION) was “inactive; negative”. Also, the mutagenic call reads like this: (Test System: AMES SALMONELLA TYPHIMURIUM, Strain/Indicator: TA100, Metabolic Activation: HAMSTER, LIVER, S-9, AROCLOR 1254 (30%), Method: PREINCUBATION) “inactive; negative”; under setting [2], “inactive; negative”; under setting [3], “inactive; negative”; (Test System: AMES SALMONELLA TYPHIMURIUM, Strain/Indicator: TA100, Metabolic Activation: RAT, LIVER, S-9, AROCLOR 1254 (10%), Method: PREINCUBATION) “inactive; negative”; (Test System: AMES SALMONELLA TYPHIMURIUM, Strain/Indicator: TA100, Metabolic Activation: RAT, LIVER, S-9, AROCLOR 1254 (30%), Method: PREINCUBATION) “inactive; negative”; (Test System: AMES SALMONELLA TYPHIMURIUM, Strain/Indicator: TA1535, Metabolic Activation: HAMSTER, LIVER, S-9, AROCLOR 1254 (10%), Method: PREINCUBATION) “inactive; negative”. The mutagenic call (Test System: AMES SALMONELLA TYPHIMURIUM, Strain/Indicator: TA1535, Metabolic Activation: HAMSTER, LIVER, S-9, AROCLOR 1254 (30%), Method: PREINCUBATION) is “inactive; negative”; the mutagenic call (Test System: AMES SALMONELLA TYPHIMURIUM, Strain/Indicator: TA1535, Metabolic Activation: NONE, Method: PREINCUBATION) was “inactive; negative”; the mutagenic call (Test System: AMES SALMONELLA TYPHIMURIUM, Strain/Indicator: TA1535, Metabolic Activation: RAT, LIVER, S-9, AROCLOR 1254 (10%), Method: PREINCUBATION) is “inactive; negative”; the mutagenic call (Test System: AMES SALMONELLA TYPHIMURIUM, Strain/Indicator: TA1535, Metabolic Activation: RAT, LIVER, S-9, AROCLOR 1254 (30%), Method: PREINCUBATION) was “inactive; negative”; the mutagenic call under setting [4] is “inactive; negative”; the mutagenic call (Test System: AMES SALMONELLA TYPHIMURIUM, Strain/Indicator: TA1537, Metabolic Activation: RAT, LIVER, S-9, PHENOBARBITAL AND BETA-NAPHTHOFLAVONE, Method: STANDARD PLATE) is “active; positive”. Moreover, the mutagenic call was “inactive; negative” (Test System: E. COLI, Strain/Indicator: WP2, Metabolic Activation: NONE, Method: STANDARD PLATE); “inactive; negative” (Test System: E. COLI, Strain/Indicator: WP2, Metabolic Activation: RAT, LIVER, S-9, AROCLOR 1254, Method: STANDARD PLATE); “inactive; negative” (Test System: E. COLI, Strain/Indicator: WP2 UVRA, Metabolic Activation: NONE, Method: STANDARD PLATE); “inactive; negative” (Test System: E. COLI, Strain/Indicator: WP2 UVRA, Metabolic Activation: RAT, LIVER, S-9, AROCLOR 1254, Method: STANDARD PLATE).

With `NS(=O)(=O)c1cccc2cccnc12`, under “Test System: AMES SALMONELLA TYPHIMURIUM, Strain/Indicator: TA100, Metabolic Activation: S-9, Method: PREINCUBATION”, the mutagenic call is “inactive; negative”.

Take `O=C1CCCN1c1ncc([N+](=O)[O-])s1`: the mutagenic call is “active; positive” under setting [5] and “inactive; negative” under setting [3].

For the compound `CNc1ccc2nccnc2c1C`, the mutagenic call was “inactive; negative” under setting [1]; “active; positive” (Test System: AMES SALMONELLA TYPHIMURIUM, Strain/Indicator: TA98, Metabolic Activation: RAT, LIVER, S-9, PCB, Method: PREINCUBATION); “inactive; negative” under setting [2].

For `O=C(O)c1cc([N+](=O)[O-])cc2cccnc12`, the mutagenic call runs as follows: under setting [5], “active; positive”; (Test System: AMES SALMONELLA TYPHIMURIUM, Strain/Indicator: TA98, Metabolic Activation: RAT, LIVER, S-9, AROCLOR 1254, Method: STANDARD PLATE) “active; positive”; under setting [3], “inactive; negative”; (Test System: AMES SALMONELLA TYPHIMURIUM, Strain/Indicator: TA100, Metabolic Activation: RAT, LIVER, S-9, AROCLOR 1254, Method: STANDARD PLATE) “active; positive”; (Test System: AMES SALMONELLA TYPHIMURIUM, Strain/Indicator: TA1535, Metabolic Activation: NONE, Method: STANDARD PLATE) “inactive; negative”; (Test System: AMES SALMONELLA TYPHIMURIUM, Strain/Indicator: TA1535, Metabolic Activation: RAT, LIVER, S-9, AROCLOR 1254, Method: STANDARD PLATE) “inactive; negative”. Besides, the mutagenic call under setting [4] is “inactive; negative” and the mutagenic call (Test System: AMES SALMONELLA TYPHIMURIUM, Strain/Indicator: TA1537, Metabolic Activation: RAT, LIVER, S-9, AROCLOR 1254, Method: STANDARD PLATE) is “inactive; negative”.
